Test results taken from paper PMC8597055, “Exploration of Pyrazolo[1,5‐a]pyrimidines as Membrane‐Bound Pyrophosphatase Inhibitors” (Chemmedchem, 2021).
Several values for one entry are separate records, joined by “and”; a condition that tells them apart may be missing. Equal entries are not always repeated. Where two headings read alike, the source gives them in different places.

How the values were obtained:
[1] = target: T1, Thermotoga maritima mPPase (TmPPase) (Thermotoga maritima, UniProt Q9S5X0); experiment: TmPPase inhibition assay (96-well); assay type: biochemical; settings: for IC50: TmPPase inhibition, NA = IC50 not assigned
Description: We started from the previously identified 5‐arylisoxazole‐3‐carboxylate core present in 2–5 (Figure 1, highlighted in blue). Using KNIME,[30] we did a substructure search for commercial analogues in the ZINC12 database[31] […] Therefore, we manually picked compounds from a diverse collection provided by a single vendor (Ambinter, 174 matches for the substructure query). Out of the search results, we selected fifteen isoxazoles for testing in vitro. For all compounds in this manuscript, we tested activity using a 96‐well based assay that detects the inhibition of TmPPase.[22, 23, 24]
(§1) All commercially obtained compounds had purities >90 % as specified by the vendor. Synthesized compounds were >95 % pure as determined by LC–MS and characterized by HRMS. The inhibition assay was carried out with purified TmPPase as previously reported.[22, 23, 24] The best hits 17 a, 19 a, and 20 a, were validated using eight compound concentrations in triplicate. Further hit validation was done against the purified mPPase from P. falciparum (PfPPase‐VP1) expressed in baculovirus‐infected insect cells (expression, purification and further enzyme analysis will be described in more detail elsewhere). 4 μL of the purified PfPPase‐VP1 (2.0 mg/mL) was reactivated in 96 μL of reactivation buffer, i. e. 20 mM 2‐(N‐morpholino)ethanesulfonic acid (MES) pH 6.5, 3.5 % (v/v) glycerol, 2 mM dithiothreitol (DTT) and 12 mg/mL L‐α‐phosphatidylcholine from soybean. For each tube strip, 3 μL of the reactivated PfPPase‐VP1 was added into 12 μL of reaction buffer (200 mM Tris‐Cl pH 8.0, 8.0 mM MgCl2, 333 mM KCl, 67 mM NaCl) and 25 μL of inhibitor solution. The reaction mixtures were incubated at 50 °C for 5 min and the assay was started with the addition of 10 μL of 2 mM sodium pyrophosphate and further incubation at 50 °C for 45 min. The reaction termination and colour development were done as earlier described.[22, 23, 24]
6 IC50 plots from the TmPPase inhibition assay
The blue and black curves refer to compounds presented already in the main article and only shown in the Supporting Information, respectively. IC50, half maximal inhibitory concentration; CI95%, half maximal inhibitory concentration expressed as a 95% confidence interval (given in square brackets); […]
IC50 determinations were done using R 3.6.1[2] and the n-parameter logistic regression (nplr) package[3] version 0.1.7. In this package, the weighted nplr, given x (compound concentrations) and y values (activity) is calculated using Richard’s equation (eq 1) where B and T are the bottom and top asymptotes, respectively; b and xmid are the Hill slope and the x coordinate at inflexion point, respectively; and s is an asymmetric coefficient. The model parameters were simultaneously optimized using non-linear minimization, using a sum of squared errors.[4] The standard error of the model, defined as the squared error on the fitted values, is used to estimate a confidence interval at 95% on the predicted IC50 values.

[2] = target: purified mPPase from P. falciparum (PfPPase-VP1) (Plasmodium falciparum, UniProt Q8IKR1); experiment: PfPPase-VP1 inhibition assay; assay type: biochemical; settings: three replicates
Procedure: Further hit validation was done against the purified mPPase from P. falciparum (PfPPase‐VP1) expressed in baculovirus‐infected insect cells. […] Overall, these compounds have higher IC50 values for PfPPase‐VP1 than for TmPPase.
as §1

[3] = Colloidal aggregation by nephelometry under TmPPase assay conditions; assay type: physicochemical; settings: for concentration of aggregate formation: TmPPase assay conditions
Procedure: In order to rule out a cause of false positives, colloidal aggregation in the TmPPase model assay was evaluated for compounds 17 a, 19 a and 20 a at six concentrations (100 μM, 50 μM, 20 μM, 10 μM, 1 μM, and 0.1 μM) using the assay conditions (Figure S3).
3 Aggregation data for 17a, 19a and 20a (Figure S3)
Potential colloidal aggregation in the TmPPase model system was studied by nephelometric methods using Nepheloskan Ascent® (Labsystems, Finland). The original assay conditions were simulated, and the light scattering of potential aggregates in the mixture was studied at six concentrations (100 µM, 50 µM, 20 µM, 10 µM, 1 µM and 0.1 µM). Aggregation of the blank and compounds 17a, 19a and 20a was measured as quadruplicates from one independent experiment at three different voltages (300 V, 400 V and 500 V) at room temperature. […]
values at 10 µM, 1 µM and 0.1 µM were similar to those observed by the blank, indicating merely […]
Figure S3. Aggregation data for compounds 17a, 19a and 20a. The data, measured in relative nephelometric units (RNU), is shown as the mean ± SD and normalized to the blank.
(1 picture or pasted object on this page, not shown here)

[4] = target: T1, Thermotoga maritima mPPase (TmPPase); parameters: method as in PMID 31131322, PMID 32292570; settings: previously reported inhibitors, read-out: IC50 [CI95%]; cited from earlier work
[5] = system: Plasmodium falciparum parasite strain 3D7; parameters: method as in PMID 32292570; settings: cited from earlier work
[6] = system: Plasmodium falciparum parasite strain 3D7; experiment: P. falciparum survival (growth) assay in erythrocyte culture, SYBR Green I; assay type: cell-based; settings: 72 h, strain 3D7 in human erythrocytes
Procedure: Plasmodium falciparum parasite strain 3D7 was used for testing the antiplasmodial activity of the test compounds. The parasite was maintained in culture as described previously.[37] Briefly, parasites were cultured in O+ human erythrocytes at 5 % haematocrit in RPMI‐1640 medium supplemented with 0.5 % Albumax II (Gibco, Carlsbad, CA, USA), 200 μM hypoxanthine (Sigma, St. Louis, MO, USA) and 20 μg/mL gentamycin (Gibco). Parasites were synchronized with the sorbitol method as described.[38] Test compounds were dissolved in DMSO to make a stock solution of 10 mM or 50 mM. Two‐fold serial dilutions of the test compounds were made in the culture medium to cover either the range of 100 μM–100 nM or 400 μM–390 nM. 50 μL of each dilution were mixed in 96‐well plate with 150 μL of 2 % haematocrit of 0.5 % parasitemia (ring stage). Compound dilutions were also mixed with 150 μL of 2 % haematocrit of uninfected erythrocytes to serve as baselines for the activity of the coloured compounds. DMSO concentration in the highest compound concentration was 0.8 %. After 72 h incubation at 37 °C, the parasite growth was quantified using fluorescent SYBR Green I®‐based assay as described.[39] The half‐maximal inhibitory concentration (IC50) of the test compounds was assessed using the non‐linear regression fit model in Prism 7 (GraphPad Software, San Diego, CA, USA). The potent anti‐malarial drug, artemisinin, was used in parallel as a positive control. Each concentration of the test compounds was tested in duplicate and the assay was repeated three times. The mean and standard deviation of the three repeats were used to calculate the IC50.

[7] = IC50, purified PfPPase-VP1, 50 °C
[8] = Plasmodium falciparum, 3D7, Erythrocyte
[9] = purified PfPPase-VP1, 50 °C, read-out: IC50

T1 sequence (Q9S5X0 whole entry): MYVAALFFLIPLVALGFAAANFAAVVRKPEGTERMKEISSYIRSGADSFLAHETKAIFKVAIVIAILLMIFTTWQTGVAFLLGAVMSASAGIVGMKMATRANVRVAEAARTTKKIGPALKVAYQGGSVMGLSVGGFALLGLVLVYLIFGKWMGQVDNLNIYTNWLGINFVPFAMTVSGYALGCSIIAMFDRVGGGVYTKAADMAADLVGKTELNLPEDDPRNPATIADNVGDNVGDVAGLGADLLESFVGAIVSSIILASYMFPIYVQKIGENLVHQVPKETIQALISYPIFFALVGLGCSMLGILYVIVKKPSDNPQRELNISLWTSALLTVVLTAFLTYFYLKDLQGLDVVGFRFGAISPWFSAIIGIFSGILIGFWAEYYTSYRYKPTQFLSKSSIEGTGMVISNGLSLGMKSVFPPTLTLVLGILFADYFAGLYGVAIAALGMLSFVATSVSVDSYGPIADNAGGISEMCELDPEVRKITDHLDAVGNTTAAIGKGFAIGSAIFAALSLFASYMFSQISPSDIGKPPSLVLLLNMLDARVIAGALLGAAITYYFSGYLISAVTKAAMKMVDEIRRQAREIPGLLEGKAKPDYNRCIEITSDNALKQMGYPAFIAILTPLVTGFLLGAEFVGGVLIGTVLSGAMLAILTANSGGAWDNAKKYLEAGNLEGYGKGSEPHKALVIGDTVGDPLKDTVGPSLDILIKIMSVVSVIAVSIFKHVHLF
purified mPPase from P. falciparum (PfPPase-VP1), sequence (Q8IKR1 entry or part of it): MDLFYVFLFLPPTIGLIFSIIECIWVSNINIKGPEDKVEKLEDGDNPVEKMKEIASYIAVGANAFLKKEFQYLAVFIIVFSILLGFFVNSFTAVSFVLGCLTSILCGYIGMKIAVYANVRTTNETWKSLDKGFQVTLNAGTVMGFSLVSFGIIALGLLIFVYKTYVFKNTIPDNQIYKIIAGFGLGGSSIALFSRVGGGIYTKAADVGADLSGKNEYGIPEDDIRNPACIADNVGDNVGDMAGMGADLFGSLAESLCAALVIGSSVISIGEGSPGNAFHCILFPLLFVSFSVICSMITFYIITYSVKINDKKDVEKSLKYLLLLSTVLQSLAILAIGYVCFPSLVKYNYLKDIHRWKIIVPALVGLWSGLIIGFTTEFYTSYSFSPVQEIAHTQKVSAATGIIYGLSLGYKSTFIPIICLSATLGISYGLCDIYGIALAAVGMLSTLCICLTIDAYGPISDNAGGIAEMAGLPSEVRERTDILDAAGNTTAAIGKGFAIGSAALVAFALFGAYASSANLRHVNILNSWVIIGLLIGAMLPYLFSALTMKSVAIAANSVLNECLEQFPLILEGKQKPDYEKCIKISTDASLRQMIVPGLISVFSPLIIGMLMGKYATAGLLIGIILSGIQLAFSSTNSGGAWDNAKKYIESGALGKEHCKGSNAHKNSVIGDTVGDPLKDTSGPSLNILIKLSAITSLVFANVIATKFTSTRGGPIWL

## C=Cc1cc2nc(C(=O)O)cc(-c3cc(C)cc(C)c3)n2n1 [19 a, 7‐(3,5‐Dimethylphenyl)‐2‐vinylpyrazolo[1,5‐a]pyrimidine‐5‐carboxylic acid]
[1]; IC50 [CI95%]
  IC50: 14 µM
[2]; [7]
  IC50: 130 µM
[3]; six concentrations 100–0.1 μM
  colloidal aggregation: no detectable aggregation

## Cc1cc(C)cc(-c2cc(C(=O)Oc3ccccc3Br)no2)c1 [compound 2]
[4]
  IC50: 6.9 µM
[5]
  activity ex vivo against P. falciparum: retained activity

## Cc1cc(C)cc(-c2cc(C(=O)Oc3ccccc3Br)nc3cc(Br)nn23)c1 [17 a, 2‐Bromophenyl 2‐bromo‐7‐(3,5‐dimethylphenyl)pyrazolo[1,5‐a]pyrimidine‐5‐carboxylate]
[1]; read-out: IC50 [CI95%]
  IC50: 14 µM
[1]; TmPPase, 17 a versus 2
  fold loss in activity compared to 2: 2 fold
[6]; [8]
  IC50: 31 µM
[6]
  IC50: 30.6 µM
[2]; [9]
  IC50: 58 µM and 57.7 µM
[3]; six concentrations 100–0.1 μM
  concentration of aggregate formation: above 20 μM
[3]; at 10 µM, 1 µM and 0.1 µM
  colloidal aggregation: negligible/no detectable aggregation
[3]; at 100 µM, 50 µM and 20 µM
  colloidal aggregation: aggregate formation

## CCOC(=O)c1cc(-c2ccc(OC)c(S(=O)(=O)Nc3ccc4c(c3)OCO4)c2)on1 [compound 5]
[4]
  IC50: 36 µM

## Nc1nc2ccc(CNC(=O)c3cc4ccccc4[nH]3)cc2s1 [compound 1]
[4]
  IC50: 2.7 µM

## CC(C)(C)c1cccc(-c2cc(C(=O)Oc3ccccc3Br)no2)c1 [compound 4]
[4]
  IC50: 6.7 µM

## C=Cc1cc2nc(C(=O)Oc3ccccc3Br)cc(-c3cc(C)cc(C)c3)n2n1 [20 a, 2‐Bromophenyl 7‐(3,5‐dimethylphenyl)‐2‐vinylpyrazolo[1,5‐a]pyrimidine‐5‐carboxylate]
[1]; IC50 [CI95%]
  IC50: 18 µM
[2]; [7]
  IC50: 74 µM
[3]; six concentrations 100–0.1 μM
  concentration of aggregate formation: above 20 μM
[3]; at 10 µM, 1 µM and 0.1 µM
  colloidal aggregation: negligible/no detectable aggregation
[3]; at 100 µM, 50 µM and 20 µM
  colloidal aggregation: aggregate formation

## Cc1cccc(-c2cc(C(=O)Oc3ccccc3Br)no2)c1 [compound 3]
[4]
  IC50: 6.1 µM

## COc1cc(C2c3c(-c4cc(Cl)c(C)cc4O)n[nH]c3C(=O)N2Cc2ccccc2)ccc1O (centres unmarked) [compound 12]
[1]; read-out: IC50 [CI95%]
  IC50: < 25 µM and 25 µM
[6]; [8]
  IC50: 3.6 µM
[2]; purified PfPPase-VP1, 50 °C
  IC50: comparably weak
[2]; [9]
  IC50: 180 µM
